What was measured:
[1] = in vivo; conditions: both, ICR, mouse, in vivo, iv
Protocol: (§1) SPF-grade ICR mice, each weighing 18-22 g, half male and half female, were used. A well-established mouse anesthesia model was used to study the general anesthesia effect of the compound of the present invention. The compounds were formulated with solvents of 10% DMSO, 15% solutol (HS15) and 75% saline to the desired concentration, for further use. After adapting to the experimental environment, the experimental animals were fasted with water available for 12 h, and were administered via intravenous injection at an administration volume of 10 mL/kg. Then the anesthesia induction time (the time period from drug administration to disappearance of the righting reflex) and the anesthesia maintenance time (the time period from disappearance of the righting reflex to recovery of the righting reflex) were recorded. Indicators including the median effective dose (ED50), median lethal dose (LD50), therapeutic index (TI, i.e. LD50/ED50), anesthesia induction time, anesthesia maintenance time and maximum tolerated dose were used to evaluate the effect and safety of anesthesia.

[2] = tested on: ICR mice; assay: animal or person; conditions: for ED50: Mus musculus
Protocol: as §1

[3] = in vivo; assay type: in vivo, rats; conditions: both sexes, Sprague-Dawley, rat, in vivo, iv
Protocol: (§2) SD rats, half male and half female, were fasted with water available for 12 h, and were administered via intravenous injection at an administration volume of 10 mL/kg. Then the anesthesia induction time (the time period from drug administration to disappearance of the righting reflex), the anesthesia maintenance time (the time period from disappearance of the righting reflex to recovery of the righting reflex and revival) and the anesthesia recovery time (the time period from revival to complete recovery) were recorded. Indicators including the median effective dose (ED50), median lethal dose (LD50), therapeutic index (TI, i.e. LD50/ED50), anesthesia induction time, anesthesia maintenance time and maximum tolerated dose were used to evaluate the effect and safety of anesthesia.

[4] = tested on: SD rats; assay: animal or person; assay type: in vivo
Protocol: as §2

[5] = Pharmacokinetic study in rats; assay type: in vivo, SD rats; conditions: male, Sprague-Dawley, rat, plasma, iv, 1 mg/kg
Protocol: Twelve male SD rats (200-300 g) were randomized into 2 groups (n=6): control group 3 and compound 20. The rats were administered via intravenous injection at 1 mg/kg (control group 3) and 1 mg/kg (compound 20), respectively, with an administration volume of 5 mL/kg and a vehicle of 5% DMSO+10% solutol (HS15)+85% Saline. Blood samples were taken before administration and at 2 min, 4 min, 8 min, 12 min, 15 min, 30 min, 1 h, 1.5 h and 2 h after administration. Plasma samples were taken by centrifugation, and stored in a −80° C. refrigerator until LC-MS analysis to be tested. After sample processing, quantitative analysis of substances in plasma was conducted using LCMS/MS to detect the concentration of prototype compounds in the plasma. The plasma concentration/time curve obtained in this way was used to calculate pharmacokinetic parameters by a validated pharmacokinetic computer program.

[6] = Pharmacokinetic study in Beagle dogs; assay type: in vivo; conditions: male, dog, plasma, iv, 0.5 mg/kg
Protocol: Six male Beagle dogs (6-10 kg) were randomized into 2 groups (n=3): control group 3 and compound 20. The […] were administered via intravenous injection at 0.5 mg/kg (control group 3) and 0.5 mg/kg (compound 20), respectively, with an administration volume of 1 mL/kg and a vehicle of 5% DMSO+10% solutol (HS15)+85% Saline. Blood samples were taken before administration and at 2 min, 5 min, 10 min, 20 min, 30 min, 1 h, 1.5 h, 2 h and 3 h after administration. Plasma samples were taken by centrifugation, and stored in a −80° C. refrigerator until LC-MS analysis to be tested. After sample processing, quantitative analysis of substances in plasma was conducted using LCMS/MS to detect the concentration of prototype compounds in the plasma. The plasma concentration/time curve obtained in this way was used to calculate pharmacokinetic parameters by a validated pharmacokinetic computer program.

[7] = tested on: Beagle dogs; assay: Hemodynamic effect study in conscious Beagle dogs (telemetry); assay type: in vivo; conditions: iv, control group 3 2 mg/kg, compound 20 0.5 and 1 mg/kg, within 1 h, recovery after 1 h
Protocol: The experiment used an emka PACK 4G telemetry system to detect the effects of intravenous injection of control group 3 and compound 20 on electrocardiogram, blood pressure and body temperature in conscious Beagle dogs, providing reference information for evaluating the safety of clinical use.
Four Beagle dogs were subjected to crossover administration, with a vehicle control (5% DMSO+10% solutol+85% Saline), control group 3 (2 mg/kg), compound 20 (0.5 mg/kg) and compound 20 (1 mg/kg) for each intravenous injection, with an administration volume of 2 mL/kg. Observations were respectively conducted before administration and within 1 h after administration on the day of administration. Anal temperature was measured before administration and at 30 min, 1 h, 2 h and 3 h after administration during each administration period; and electrocardiogram parameters were continuously collected from 0.5 h before administration to 3 h after administration during each administration period. Blood pressure was collected at 15 min after collection was started, and was collected at 2 min, 5 min, 10 min, 20 min, 30 min, 1 h, 2 h and 3 h after administration. The electrocardiogram, blood pressure data, body temperature, and clinical observation results on the day of administration at various time points including before administration (at 30 min after collection was started) and at 2 min, 5 min, 10 min, 20 min, 30 min, 1 h, 2 h and 3 h after administration were analysed and evaluated.

[8] = mice, iv, administration to disappearance of righting reflex
[9] = mice, iv, disappearance to recovery of righting reflex

CC(C)c1cccc(C(C)S(C)(=O)=O)c1O (stereo not shown) [Compound 1, 2-isopropyl-6-(1-(methylsulfonyl)ethyl)phenol]
LD50 [1]: 35 mg/kg | MTD [1]: 24 mg/kg | ED50 ([2]; iv): 8 mg/kg | TI ([2]; mice, LD50/ED50): 4.4 | Anesthesia induction time [2, 8]: 60 s | Anesthesia maintenance time [2, 9]: 255 s

CC(C)c1cccc(C(C)[S+](C)[O-])c1O (stereo not shown) [Compound 2, 2-isopropyl-6-(1-(methylsulfinyl)ethyl)phenol]
LD50 [1]: 17 mg/kg | MTD [1]: 10 mg/kg | ED50 ([2]; iv): 6 mg/kg | TI ([2]; mice, LD50/ED50): 3.8 | Anesthesia induction time [2, 8]: 2 s | Anesthesia maintenance time [2, 9]: 690 s

CC(c1cccc(C(C)S(C)(=O)=O)c1O)C1CC1 (stereo not shown) [Compound 4, 2-(1-cyclopropylethyl)-6-(1-(methylsulfonyl)ethyl)phenol]
LD50 [1]: 10 mg/kg | MTD [1]: 4 mg/kg | ED50 ([2]; iv): 2 mg/kg | TI ([2]; mice, LD50/ED50): 5.0 | Anesthesia induction time [2, 8]: 2 s | Anesthesia maintenance time [2, 9]: 356 s

CC(c1cccc(C(C)[S+](C)[O-])c1O)C1CC1 (stereo not shown) [Compound 5, 2-(1-cyclopropylethyl)-6-(1-(methylsulfinyl)ethyl)phenol]
LD50 [1]: 10 mg/kg | MTD [1]: 8 mg/kg | ED50 ([2]; iv): 6 mg/kg | TI ([2]; mice, LD50/ED50): 1.7 | Anesthesia induction time [2, 8]: 2 s | Anesthesia maintenance time [2, 9]: 1638 s

CC(c1cccc(C(C)S(=O)(=O)C(C)C)c1O)C1CC1 (stereo not shown) [Compound 6, 2-(1-cyclopropylethyl)-6-(1-(isopropylsulfonyl)ethyl)phenol]
LD50 [1]: 34 mg/kg | MTD [1]: 22 mg/kg | ED50 ([2]; iv): 11 mg/kg | TI ([2]; mice, LD50/ED50): 3.1 | Anesthesia induction time [2, 8]: 5 s | Anesthesia maintenance time [2, 9]: 579 s

CCS(=O)(=O)C(C)c1cccc(C(C)C2CC2)c1O (stereo not shown) [Compound 11, 2-(1-cyclopropylethyl)-6-(1-(ethylsulfonyl)ethyl)phenol]
LD50 [1]: 11 mg/kg | MTD [1]: 6 mg/kg | ED50 ([2]; iv): 2 mg/kg | TI ([2]; mice, LD50/ED50): 5.5 | Anesthesia induction time [2, 8]: 22 s | Anesthesia maintenance time [2, 9]: 560 s

CCC(c1cccc(C(C)C2CC2)c1O)S(C)(=O)=O (stereo not shown) [Compound 14, 2-(1-cyclopropylethyl)-6-(1-(methylsulfonyl)propyl)phenol]
LD50 [1]: 12 mg/kg | MTD [1]: 9 mg/kg | ED50 ([2]; iv): 4 mg/kg | TI ([2]; mice, LD50/ED50): 3.0 | Anesthesia induction time [2, 8]: 2 s | Anesthesia maintenance time [2, 9]: 499 s

CCS(=O)(=O)[C@H](C)c1cccc([C@@H](C)C2CC2)c1O [Compound 21, 2-((S)-1-cyclopropylethyl)-6-((R)-1-(ethylsulfonyl)ethyl)phenol]
LD50 [1]: 6 mg/kg | MTD [1]: 3.5 mg/kg | ED50 ([2]; iv): 2.5 mg/kg | TI ([2]; mice, LD50/ED50): 2.4 | Anesthesia induction time [2, 8]: 2 s | Anesthesia maintenance time [2, 9]: 354 s

CCS(=O)(=O)[C@@H](C)c1cccc([C@@H](C)C2CC2)c1O [Compound 22, 2-((S)-1-cyclopropylethyl)-6-((S)-1-(ethylsulfonyl)ethyl)phenol]
LD50 [1]: 18 mg/kg | MTD [1]: 9 mg/kg | ED50 ([2]; iv): 5 mg/kg | TI ([2]; mice, LD50/ED50): 3.6 | Anesthesia induction time [2, 8]: 2 s | Anesthesia maintenance time [2, 9]: 384 s

CCS(=O)(=O)[C@H](C)c1cccc([C@H](C)C2CC2)c1O [Compound 23, 2-((R)-1-cyclopropylethyl)-6-((R)-1-(ethylsulfonyl)ethyl)phenol]
LD50 [1]: 14 mg/kg | MTD [1]: 10 mg/kg | ED50 ([2]; iv): 7 mg/kg | TI ([2]; mice, LD50/ED50): 2 | Anesthesia induction time [2, 8]: 2 s | Anesthesia maintenance time [2, 9]: 294 s

CC(C)c1cccc(C(C)C)c1O [Control group 1, propofol, reference compound]
LD50 [1]: 31 mg/kg | ED50 ([2]; iv): 12 mg/kg | Anesthesia induction time ([2]; mouse, in vivo): 19 s | Anesthesia maintenance time ([2]; mouse, in vivo): 586 s | MTD ([2]; mouse, in vivo, iv): 20 mg/kg

CC(C)c1cccc(C(C)C2CC2)c1O (stereo not shown) [Control group 2, ciprofol, reference compound]
LD50 [1]: 17 mg/kg | MTD [1]: 9 mg/kg | ED50 ([2]; iv): 3.5 mg/kg | Anesthesia induction time ([2]; mouse, in vivo): 2 s | Anesthesia maintenance time ([2]; mouse, in vivo): 534 s | TI ([2]; mouse, in vivo): 4.9

CC(C)c1cccc([C@H](C)C2CC2)c1O [Control group 3, ciprofol, reference compound]
LD50 [1]: 6 mg/kg | MTD [1]: 3.1 mg/kg | ED50 ([2]; iv): 1.2 mg/kg | Anesthesia induction time ([2]; mouse, in vivo): 2 s | Anesthesia maintenance time ([2]; mouse, in vivo): 521 s | TI ([2]; mouse, in vivo): 5 | LD50 [3]: 5.6 mg/kg | MTD [3]: 4 mg/kg | ED50 ([4]; Rattus norvegicus, iv): 1.1 mg/kg | Anesthesia induction time ([4]; rat, in vivo): 34 s | Anesthesia maintenance time ([4]; rat, in vivo): 409 s | TI ([4]; rat, in vivo): 5.1 | AUC(0-t) [5]: 142 ng·h/mL | half-life [5]: 50.6 min | AUC(0-t) [6]: 145 ng·h/mL | half-life [6]: 37.8 min | change in heart rate after administration [7]: slow down in heart rate
